Measurements published in patent US4942170A, “2-(substituted methylidene)-N-[3-[piperidin-1-yl]propyl]hydrazine carboximidamides useful as antiparasitics” (The Rockefeller University, priority 1988, dated 1990).
Where a name gives a salt, the structure may show the parent alone. Read-outs that look alike come from different tables or passages of the source.

Experiments:
[1] = molecular target: trypanothione reductase from C. fasciculata (Crithidia fasciculata, UniProt P39040); test: Enzymatic reduction of compounds as substrates of trypanothione reductase (NADPH oxidation, cytochrome C coupled assay); type: biochemical; conditions: aerobic
Sequence of trypanothione reductase from C. fasciculata (P39040 whole entry): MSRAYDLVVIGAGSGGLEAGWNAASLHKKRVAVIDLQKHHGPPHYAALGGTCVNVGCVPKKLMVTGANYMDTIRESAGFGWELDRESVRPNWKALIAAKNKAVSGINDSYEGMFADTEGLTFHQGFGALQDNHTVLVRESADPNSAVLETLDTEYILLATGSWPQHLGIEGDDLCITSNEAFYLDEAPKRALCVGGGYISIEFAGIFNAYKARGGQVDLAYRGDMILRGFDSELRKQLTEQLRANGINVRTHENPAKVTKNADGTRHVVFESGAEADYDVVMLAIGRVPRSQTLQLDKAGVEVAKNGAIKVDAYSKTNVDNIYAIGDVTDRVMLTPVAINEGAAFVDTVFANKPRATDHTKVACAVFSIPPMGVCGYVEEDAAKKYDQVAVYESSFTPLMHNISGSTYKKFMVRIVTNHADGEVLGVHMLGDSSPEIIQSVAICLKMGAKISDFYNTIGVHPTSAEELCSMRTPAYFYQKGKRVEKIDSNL
Experimental: FIG. 2 is a graph of the results of the enzymatic reduction of compounds C, D and E of the present invention and comparative prior art compounds as a function of substrate concentration. Relative rates were measured under aerobic conditions by coupling superoxide production to cytochrome C reduction as described.
Trypanothione disulfide reductase activity is assayed spectrophotometrically by monitoring substrate-dependent oxidation of NADPH at 340 nm. Alternatively, enzyme activity is monitored by coupling radical formation to cytochrome C reduction and measuring absorbance changes (ε550 =21 mM^-1). Absorbance changes are monitored on a spectrophotometer with a thermostated cuvette chamber. Enzyme concentration is measured spectrophotometrically using the extinction coefficient (ε464 =11.3 mM^-1, Shames et al., Biochemistry, 25, 3519-3526 (1986). Kinetic runs are carried out at 27° C. in 0.1M 4-(2-hydroxyethyl)1-piperazineethane sulfonic acid (HEPES) buffer, pH 7.8, containing 0.1 mM EDTA and 0.25 mM NADPH. Anaerobic measurements are performed in rubber stoppered cuvettes that have been flushed repeatedly with helium. All buffers and solutions used in the assays are treated in this manner. Additions to the cuvette are made with a microsyringe piercing the septum. […]

[2] = tested on: Trypanosoma cruzi Strain Y trypomastigotes; test: Trypanocidal assay: trypomastigotes pre-incubated with test compound, then added to HSVSM cell culture; type: cell-based; conditions: for percent of cells infected relative to untreated control at 0.5 µM / percent of cells infected relative to untreated control at 1 µM / percent of cells infected relative to untreated control at 5 µM / percent of cells infected relative to untreated control at 10 µM: Trypanosoma cruzi, read-out: percentage of cells infected by pre-treated trypomastigotes relative to untreated controls
Experimental: (§1) Human saphenous vein smooth muscle (HSVSM) cells are isolated from outgrowths of explants of unused portions of veins harvested for coronary artery bypass surgery as described previously by Warner et al., J. Exp. Med., 165, 1316-1331 (1987). The cells are maintained in DME medium containing 5.5 mM glucose, 25 mM HEPES and 10% FBS (Hy-Clone Laboratories,Logan, Utah). Trypanosoma cruzi Strain Y trypomastigotes are propagated as described previously by Libby et al., J. Clin. Invest., 77, 127-135 (1986), except that HSVSM cells are used in place of bovine aortic smooth muscle cells.
Test compounds are dissolved in 0.3 ml DMSO and brought to volume by dilution with serum-free DME medium. Solutions are sterilized by filtration through 0.22 μm filter units. Trypomastigotes (10^7 ml^-1) are harvested and washed twice in serum-free DME medium. Parasites are added to solutions of the test compounds to a final concentration of 10^6 ml^-1 and incubated for 3 hours at 37° C. in a 5% CO2 atmosphere. After incubation with the test compound, 0.1 ml of the parasite suspension (10^5 organisms) is diluted with 0.4 ml cell culture medium and added to a culture of HSVSM cells. After 16 hours, the HSVSM cells are washed to remove non-internalized trypomastigotes and resupplied with fresh culture medium. Infections are followed for 4-7 days by light microscopy.
Trypomastigotes were pre-incubated with a test compound or a prior art compound as described above. Results are expressed as the percentage of cells infected by pre-treated trypomastigotes relative to untreated controls.

trypomastigotes = test: Ongoing infection model in human smooth muscle cells infected with trypomastigotes; type: cell-based, Trypanosoma cruzi; conditions: compound incubated 16 hours, counted 5 days after initial infection, untreated 1.85 × 10^7
Experimental: as §1
The effects of the compounds of the present invention have also been tested in an ongoing infection model. […] The cells are then incubated for 48 hours after which time the test compounds are added to the cultures and incubated for 16 hours. After 16 hours, the treated culture media is replaced with drug-free fresh media and cell culture is continued for a further 24 hours. Levels of parasitemia in the treated and untreated cultures are then examined.
*Number of trypomastigotes/ml counted swimming above the HSVM cell
monolayer 5 days after initial infection.

trypanothione reductase = trypanothione reductase (Crithidia fasciculata, UniProt P39040); test: Incubation of trypanothione reductase with compound under aerobic and anaerobic conditions, dialysis, then T(S)2 reductase assay; type: biochemical, C. fasciculata; conditions: 0.277778 h, pH 7.8, read-out: loss of T(S)2 reductase activity relative to the aerobic control
Sequence of trypanothione reductase (P39040 whole entry): as above
Experimental: Trypanothione disulfide reductase activity is assayed spectrophotometrically by monitoring substrate-dependent oxidation of NADPH at 340 nm. Alternatively, enzyme activity is monitored by coupling radical formation to cytochrome C reduction and measuring absorbance changes (ε550 =21 mM^-1). Absorbance changes are monitored on a spectrophotometer with a thermostated cuvette chamber. Enzyme concentration is measured spectrophotometrically using the extinction coefficient (ε464 =11.3 mM^-1, Shames et al., Biochemistry, 25, 3519-3526 (1986). Kinetic runs are carried out at 27° C. in 0.1M 4-(2-hydroxyethyl)1-piperazineethane sulfonic acid (HEPES) buffer, pH 7.8, containing 0.1 mM EDTA and 0.25 mM NADPH. Anaerobic measurements are performed in rubber stoppered cuvettes that have been flushed repeatedly with helium. All buffers and solutions used in the assays are treated in this manner. Additions to the cuvette are made with a microsyringe piercing the septum.
Assays are carried out in 0.1M HEPES, pH 7.8, containing 1 mM EDTA, 0.15 mM […], 500 pmoles/ml trypanothione reductase and 10 μM nitrofuran VIII. Reactions are started by addition of enzyme (80 μl to a 2 ml assay). Sequential spectra (200-800 nm) are collected at 20 sec intervals using a UV/Vis spectrophotometer. At the end of the experiment, the assay mixtures are dialyzed and trypanothione reductase is assayed using 250 μM T(S)2. […]

[3] = 0.5 μM, 3 hours pre-incubation at 37° C., HSVSM cells
[4] = 1 μM, 3 hours pre-incubation at 37° C., HSVSM cells
[5] = 5 μM, 3 hours pre-incubation at 37° C., HSVSM cells
[6] = 10 μM, 3 hours pre-incubation at 37° C., HSVSM cells

Compound: CC1CS(=O)(=O)CCN1/N=C/c1ccc([N+](=O)[O-])o1 (stereo not drawn) [Nifurtimox, reference compound]
- trypanothione reductase-catalyzed reduction monitored by NADPH oxidation [1]: could be detected
- percent of cells infected relative to untreated control at 0.5 µM ([2]; 3 h): 100%
- percent of cells infected relative to untreated control at 1 µM ([2]; 3 h): 100%
- percent of cells infected relative to untreated control at 5 µM ([2]; 3 h): 10%
- percent of cells infected relative to untreated control at 10 µM ([2]; 3 h): 4%

Compound: CC(CCC1=C(C)C(=O)c2ccccc2C1=O)=NNC(=N)N [Compound B, hydrochloride]
- percent of cells infected relative to untreated control at 0.5 µM [2, 3]: 100%
- percent of cells infected relative to untreated control at 1 µM [2, 4]: 100%
- percent of cells infected relative to untreated control at 5 µM [2, 5]: 21%
- percent of cells infected relative to untreated control at 10 µM [2, 6]: 8%

Compound: N=C(N)NN=Cc1ccc([N+](=O)[O-])o1 [Guanofuracin, reference compound]
- percent of cells infected relative to untreated control at 0.5 µM ([2]; 3 h): 100%
- percent of cells infected relative to untreated control at 1 µM ([2]; 3 h): 45%
- percent of cells infected relative to untreated control at 5 µM ([2]; 3 h): 0%
- percent of cells infected relative to untreated control at 10 µM ([2]; 3 h): 0%

Compound: CC(CCC1=C(CCC(C)=NNC(=N)N)C(=O)c2ccccc2C1=O)=NNC(=N)N.Cl.Cl [Compound A, 2,3-Bis(3-(2-amidinohydrazono)butyl)-1,4-naphthoquinone dihydrochloride]
- Trypomastigotes/ml counted swimming above the HSVM cell monolayer (trypomastigotes; 1 μM): 4.10 × 10^7 Trypomastigotes/ml
- Trypomastigotes/ml counted swimming above the HSVM cell monolayer (trypomastigotes; 10 μM): 1.35 × 10^7 Trypomastigotes/ml
- percent of cells infected relative to untreated control at 0.5 µM [2, 3]: 14%
- percent of cells infected relative to untreated control at 1 µM [2, 4]: 0%
- percent of cells infected relative to untreated control at 5 µM [2, 5]: 0%
- percent of cells infected relative to untreated control at 10 µM [2, 6]: 0%

Compound: N=C(NCCCN1CCN(CCCNC(=N)NN=Cc2ccc([N+](=O)[O-])o2)CC1)NN=Cc1ccc([N+](=O)[O-])o1 [Compound E, 2,2'-Bis(5-nitro-2-furanylmethylidene)-N,N'-[1,4-piperazinediylbis(3,1-propanediyl)]-bishydrazinecarboximidamide tetrahydrobromide]
- inhibition at 10 µM (trypanothione reductase): 93%
- Trypomastigotes/ml counted swimming above the HSVM cell monolayer (trypomastigotes; 1 μM): 1.85 × 10^7 Trypomastigotes/ml
- Trypomastigotes/ml counted swimming above the HSVM cell monolayer (trypomastigotes; 10 μM): 2.85 × 10^7 Trypomastigotes/ml
- percent of cells infected relative to untreated control at 0.5 µM ([2]; 3 h): 100%
- percent of cells infected relative to untreated control at 1 µM ([2]; 3 h): 0%
- percent of cells infected relative to untreated control at 5 µM ([2]; 3 h): 0%
- percent of cells infected relative to untreated control at 10 µM ([2]; 3 h): 0%

Compound: 2-(5-Nitro-2-furanylmethylidene)-N-[3-(4-methylpiperidin-1-yl)propyl]hydrazinecarboximidamide trihydrobromide [Compound D]
- Trypomastigotes/ml counted swimming above the HSVM cell monolayer (trypomastigotes; 1 μM): 1.80 × 10^7 Trypomastigotes/ml
- Trypomastigotes/ml counted swimming above the HSVM cell monolayer (trypomastigotes; 10 μM): < 2.00 × 10^4 Trypomastigotes/ml
- percentage of cells infected by pre-treated trypomastigotes relative to untreated controls [2, 3]: 64%
- percentage of cells infected by pre-treated trypomastigotes relative to untreated controls [2, 4]: 35%
- percentage of cells infected by pre-treated trypomastigotes relative to untreated controls [2, 5]: 0%
- percentage of cells infected by pre-treated trypomastigotes relative to untreated controls [2, 6]: 0%

Compound: NC(=O)N/N=C/c1ccc([N+](=O)[O-])o1 [nitrofurazone]
- trypanothione reductase-catalyzed reduction monitored by NADPH oxidation [1]: could be detected
